Assay results as given in patent US11026943B2, “Aminoquinoline derivatives and uses thereof” (UNIVERSITY OF DELHI, priority 2012, dated 2021).

Assay: Solubility (solvent listed in compound tables)
Format: physicochemical
[1] = solvents listed for the compound

Structure (SMILES) | SOLUBILITY (solvent named, Table 3) | SOLUBILITY (solvent named, Table 4) | also measured
COc1cc(Nc2nc(NCCNc3c4ccc(Cl)cc4nc4ccc(OC)cc34)nc(N3CCCCC3)n2)cc(OC)c1 [ATH 158] | DMSO | – | –
COc1cc(Nc2nc(NCCCNc3c4ccc(Cl)cc4nc4ccc(OC)cc34)nc(N3CCCCC3)n2)cc(OC)c1 [ATH 159] | DMSO | – | –
COc1ccc(Nc2nc(NCCNc3c4ccc(Cl)cc4nc4ccc(OC)cc34)nc(N3CCN(c4ccccc4)CC3)n2)cc1 [ATH 164] | DMSO | – | –
COc1ccc(Nc2nc(NCCNc3c4ccc(Cl)cc4nc4ccc(OC)cc34)nc(N(C)C)n2)cc1 [ATH 165] | DMSO | – | –
COc1ccc(Nc2nc(NCCCNc3c4ccc(Cl)cc4nc4ccc(OC)cc34)nc(N(C)C)n2)cc1 [ATH 166] | DMSO | – | –
COc1cc(Nc2nc(NCCNc3c4ccc(Cl)cc4nc4ccc(OC)cc34)nc(N3CCN(c4ccccc4)CC3)n2)cc(OC)c1 [ATH 170] | DMSO | – | –
COc1cc(Nc2nc(NCCCNc3c4ccc(Cl)cc4nc4ccc(OC)cc34)nc(N3CCN(c4ccccc4)CC3)n2)cc(OC)c1 [ATH 171] | DMSO | – | –
COc1ccc2nc3cc(Cl)ccc3c(NCCNc3nc(N4CCN(c5ccccc5)CC4)nc(N4CCN(c5ccccc5)CC4)n3)c2c1 [ATH 178] | DMSO | – | –
COc1ccc2nc3cc(Cl)ccc3c(CNCCNc3nc(N4CCN(c5ccccc5)CC4)nc(N4CCN(c5ccccc5)CC4)n3)c2c1 [ATH 179] | DMSO | – | –
COc1ccc(Nc2nc(NCCNc3c4ccc(Cl)cc4nc4ccc(OC)cc34)nc(N3CCOCC3)n2)cc1 [ATH 182] | DMSO | – | –
COc1ccc(Nc2nc(NCCNCc3c4ccc(Cl)cc4nc4ccc(OC)cc34)nc(N3CCOCC3)n2)cc1 [ATH 184] | DMSO | – | –
COc1ccc(Nc2nc(NCCNc3c4ccc(Cl)cc4nc4ccc(OC)cc34)nc(N3CCCCC3)n2)cc1 [ATH 189] | DMSO | – | –
COc1ccc(Nc2nc(NCCNCc3c4ccc(Cl)cc4nc4ccc(OC)cc34)nc(N3CCCCC3)n2)cc1 [ATH 191] | DMSO | – | –
COc1cc(Nc2nc(NCCNc3c4ccc(Cl)cc4nc4ccc(OC)cc34)nc(NC3CCCCC3)n2)cc(OC)c1 [ATH 192] | DMSO | – | –
COc1cc(Nc2nc(NCCNCc3c4ccc(Cl)cc4nc4ccc(OC)cc34)nc(NC3CCCCC3)n2)cc(OC)c1 [ATH 194] | DMSO | – | –
COc1ccc(Nc2nc(NCCNCc3c4ccc(Cl)cc4nc4ccc(OC)cc34)nc(N(C)C)n2)cc1 [ATH 196] | DMSO | – | –
COc1ccc(Nc2nc(NCCCNc3c4ccc(Cl)cc4nc4ccc(OC)cc34)nc(N3CCN(c4ccccc4)CC3)n2)cc1 [ATH 198] | DMSO | – | –
COc1ccc(Nc2nc(NCCNc3c4ccc(Cl)cc4nc4ccc(OC)cc34)nc(NC3CCCCC3)n2)cc1 [ATH 200] | DMSO | – | –
COc1ccc(Nc2nc(NCCCNc3c4ccc(Cl)cc4nc4ccc(OC)cc34)nc(NC3CCCCC3)n2)cc1 [ATH 201] | DMSO | – | –
COc1cc(Nc2ccnc(N3CCN(c4ccnc5cc(Cl)ccc45)CC3)n2)cc(OC)c1 [ATH 214] | DMSO | – | –
Clc1ccc2c(N3CCN(c4ccnc(Cl)n4)CC3)ccnc2c1 [ATH 218] | DMSO | – | –

Structure (SMILES) | SOLUBILITY (solvent named, Table 3) | SOLUBILITY (solvent named, Table 4) | also measured
COc1ccc(Nc2ccnc(N3CCN(c4ccnc5cc(Cl)ccc45)CC3)n2)cc1 [ATH 220] | DMSO | – | –
Fc1ccc(Nc2ccnc(N3CCN(c4ccnc5cc(Cl)ccc45)CC3)n2)cc1 [ATH 223] | DMSO | – | –
Clc1ccc2c(N3CCN(c4nccc(Nc5ccc(Br)cc5)n4)CC3)ccnc2c1 [ATH 226] | DMSO | – | –
Clc1ccc(Nc2ccnc(N3CCN(c4ccnc5cc(Cl)ccc45)CC3)n2)cc1 [ATH 227] | DMSO | – | –
Clc1ccc2c(N3CCN(c4ccnc(N5CCOCC5)n4)CC3)ccnc2c1 [ATH 228] | DMSO | – | –
Clc1ccc2c(N3CCN(c4ccnc(N5CCCCC5)n4)CC3)ccnc2c1 [ATH 231] | DMSO | – | –
Clc1ccc2c(N3CCN(c4nccc(Nc5ccccc5)n4)CC3)ccnc2c1 [ATH 232] | DMSO | – | –
Clc1ccc2c(N3CCN(c4ccnc(NC5CCCCC5)n4)CC3)ccnc2c1 [ATH 236] | DMSO | – | –
Cc1cc(N2CCN(c3ccnc4cc(Cl)ccc34)CC2)nc(Cl)n1 [ATH 237] | DMSO | – | –
Cc1cc(N2CCN(c3ccnc4cc(Cl)ccc34)CC2)nc(N2CCOCC2)n1 [ATH 239] | DMSO | – | –
Cc1cc(N2CCN(c3ccnc4cc(Cl)ccc34)CC2)nc(N2CCCCC2)n1 [ATH 240] | DMSO | – | –
Cc1cc(N2CCN(c3ccnc4cc(Cl)ccc34)CC2)nc(NC2CCCCC2)n1 [ATH 241] | DMSO | – | –
COc1cc(Nc2cc(C)nc(N3CCN(c4ccnc5cc(Cl)ccc45)CC3)n2)cc(OC)c1 [ATH 244] | DMSO | – | –
COc1ccc(Nc2cc(C)nc(N3CCN(c4ccnc5cc(Cl)ccc45)CC3)n2)cc1 [ATH 245] | DMSO | – | –
Cc1cc(Nc2ccc(F)cc2)nc(N2CCN(c3ccnc4cc(Cl)ccc34)CC2)n1 [ATH 247] | DMSO | – | –
Clc1ccc2c(N3CCN(c4ccnc(N5CCCC5)n4)CC3)ccnc2c1 [ATH 252] | DMSO | – | –
OCCNc1nccc(N2CCN(c3ccnc4cc(Cl)ccc34)CC2)n1 [ATH 254] | DMSO | – | –
OCCCNc1nccc(N2CCN(c3ccnc4cc(Cl)ccc34)CC2)n1 [ATH 255] | DMSO | – | –
Cc1cc(N2CCN(c3ccnc4cc(Cl)ccc34)CC2)nc(N2CCCC2)n1 [ATH 256] | DMSO | – | –
Cc1ccc(Nc2ccnc(NCCNc3ccnc4cc(Cl)ccc34)n2)cc1 [DKG805] | – | DMSO | –
Cc1ccc(Nc2ccnc(NCCCNc3ccnc4cc(Cl)ccc34)n2)cc1 [DKG806] | – | DMSO | –

Structure (SMILES) | SOLUBILITY (solvent named, Table 3) | SOLUBILITY (solvent named, Table 4) | also measured
Cc1ccc(Nc2ccnc(NCCCCNc3ccnc4cc(Cl)ccc34)n2)cc1 [DKG807] | – | DMSO | –
Clc1ccc2c(NCCNc3nccc(Nc4ccc(Br)cc4)n3)ccnc2c1 [DKG809] | – | DMSO | –
Clc1ccc2c(NCCCNc3nccc(Nc4ccc(Br)cc4)n3)ccnc2c1 [DKG810] | – | DMSO | –
Clc1ccc2c(NCCCCNc3nccc(Nc4ccc(Br)cc4)n3)ccnc2c1 [DKG811] | – | DMSO | –
Clc1ccc(Nc2ccnc(NCCNc3ccnc4cc(Cl)ccc34)n2)cc1 [DKG813] | – | DMSO | –
Clc1ccc(Nc2ccnc(NCCCNc3ccnc4cc(Cl)ccc34)n2)cc1 [DKG814] | – | DMSO | –
Clc1ccc(Nc2ccnc(NCCCCNc3ccnc4cc(Cl)ccc34)n2)cc1 [DKG815] | – | DMSO | –
Fc1ccc(Nc2ccnc(NCCNc3ccnc4cc(Cl)ccc34)n2)cc1 [DKG817] | – | DMSO | –
Fc1ccc(Nc2ccnc(NCCCNc3ccnc4cc(Cl)ccc34)n2)cc1 [DKG818] | – | DMSO | –
Fc1ccc(Nc2ccnc(NCCCCNc3ccnc4cc(Cl)ccc34)n2)cc1 [DKG819] | – | DMSO | –
Clc1ccc2c(NCCNc3nccc(Nc4ccccc4)n3)ccnc2c1 [DKG821] | – | DMSO | –
Clc1ccc2c(NCCCNc3nccc(Nc4ccccc4)n3)ccnc2c1 [DKG822] | – | DMSO | –
Clc1ccc2c(NCCCCNc3nccc(Nc4ccccc4)n3)ccnc2c1 [DKG823] | – | DMSO | –
COc1ccc(Nc2ccnc(NCCNc3ccnc4cc(Cl)ccc34)n2)cc1 [DKG825] | – | DMSO | –
COc1ccc(Nc2ccnc(NCCCNc3ccnc4cc(Cl)ccc34)n2)cc1 [DKG826] | – | DMSO | –
COc1ccc(Nc2ccnc(NCCCCNc3ccnc4cc(Cl)ccc34)n2)cc1 [DKG827] | – | DMSO | –
COc1cc(Nc2ccnc(NCCCNc3ccnc4cc(Cl)ccc34)n2)cc(OC)c1 [DKG830] | – | DMSO | –
COc1cc(Nc2ccnc(NCCCCNc3ccnc4cc(Cl)ccc34)n2)cc(OC)c1 [DKG831] | – | DMSO | –
Cc1cc(Nc2ccccc2)nc(NCCNc2ccnc3cc(Cl)ccc23)n1 [DKG833] | – | DMSO | –
Cc1cc(Nc2ccccc2)nc(NCCCNc2ccnc3cc(Cl)ccc23)n1 [DKG834] | – | DMSO | –
COc1ccc(Nc2cc(C)nc(NCCCNc3ccnc4cc(Cl)ccc34)n2)cc1 [DKG838] | – | DMSO | –

Structure (SMILES) | SOLUBILITY (solvent named, Table 3) | SOLUBILITY (solvent named, Table 4) | also measured
COc1ccc(Nc2cc(C)nc(NCCCCNc3ccnc4cc(Cl)ccc34)n2)cc1 [DKG839] | – | DMSO | –
Cc1cc(Nc2ccc(Cl)cc2)nc(NCCCNc2ccnc3cc(Cl)ccc23)n1 [DKG846] | – | DMSO | –
Cc1cc(Nc2ccc(Cl)cc2)nc(NCCCCNc2ccnc3cc(Cl)ccc23)n1 [DKG847] | – | DMSO | –
Cc1cc(Nc2ccc(Br)cc2)nc(NCCCNc2ccnc3cc(Cl)ccc23)n1 [DKG850] | – | DMSO | –
Cc1cc(Nc2ccc(Br)cc2)nc(NCCCCNc2ccnc3cc(Cl)ccc23)n1 [DKG851] | – | DMSO | –
Cc1cc(Nc2ccc(F)cc2)nc(NCCCNc2ccnc3cc(Cl)ccc23)n1 [DKG854] | – | DMSO | –
Cc1cc(Nc2ccc(F)cc2)nc(NCCCCNc2ccnc3cc(Cl)ccc23)n1 [DKG855] | – | DMSO | –
Cc1ccc(Nc2cc(C)nc(NCCNc3ccnc4cc(Cl)ccc34)n2)cc1 [DKG857] | – | DMSO | –
Cc1ccc(Nc2cc(C)nc(NCCCNc3ccnc4cc(Cl)ccc34)n2)cc1 [DKG858] | – | DMSO | –
Cc1ccc(Nc2cc(C)nc(NCCCCNc3ccnc4cc(Cl)ccc34)n2)cc1 [DKG859] | – | DMSO | –
OCCCNc1nccc(NCCCNc2ccnc3cc(Cl)ccc23)n1 [MT1-121] | – | – | SOLUBILITY [1]: MeOH, DMSO
OCCCCNc1nccc(NCCCNc2ccnc3cc(Cl)ccc23)n1 [MT1-122] | – | – | SOLUBILITY [1]: MeOH, DMSO
OCCNc1nccc(NCCCNc2ccnc3cc(Cl)ccc23)n1 [MT1-127] | – | – | SOLUBILITY [1]: MeOH, DMSO
OCCCCCNc1nccc(NCCCNc2ccnc3cc(Cl)ccc23)n1 [MT1-128] | – | – | SOLUBILITY [1]: MeOH, DMSO
OCCCCCCNc1nccc(NCCCNc2ccnc3cc(Cl)ccc23)n1 [MT1-132] | – | – | SOLUBILITY [1]: MeOH, DMSO
Cc1cc(NCCCNc2ccnc3cc(Cl)ccc23)nc(NCCO)n1 [MT1-145] | – | – | SOLUBILITY [1]: MeOH, DMSO
Cc1cc(NCCCNc2ccnc3cc(Cl)ccc23)nc(NCCCO)n1 [MT1-146] | – | – | SOLUBILITY [1]: MeOH, DMSO
Cc1cc(NCCCNc2ccnc3cc(Cl)ccc23)nc(NCCCCO)n1 [MT1-147] | – | – | SOLUBILITY [1]: MeOH, DMSO
Cc1cc(NCCCNc2ccnc3cc(Cl)ccc23)nc(NCCCCCO)n1 [MT1-148] | – | – | SOLUBILITY [1]: MeOH, DMSO
OCCNc1nccc(NCCCCNc2ccnc3cc(Cl)ccc23)n1 [MT1-156] | – | – | SOLUBILITY [1]: MeOH, DMSO
